Measured values as given in patent publication US20150272992A1, “Treatment of Tumors with Activated Mesenchymal Stem Cells” (THE TEXAS A&M UNIVERSITY SYSTEM, priority 2012, published 2015).

Columns and labels:
Assay type in all cases: cell-based, human
[1] = tested on: MDA cells; test: MDA cells incubated with agent alone (live cell counting, MTT, Annexin V/7AAD)
Description: (§1) hMSCs were plated at 10^5 cells in CCM in 6-well plates and incubated for 4 hrs. For pre-activation, hMSCs were incubated at 37° C. for 24 hrs in 2% CM containing 10 ng/mL TNF-α. For co-culture, an equal number of MDA cells in 2% CM with or without TNF-α (10 ng/mL) were added to hMSC containing wells. For transwell cultures, hMSCs were plated at 10^5 cells in the upper compartment (Transwell, 0.4 μm pore size; Corning; Corning, N.Y.), while an equal number of MDA cells was plated in the lower compartment in 2% CM with or without TNF-α (10 ng/mL). After 24 hrs, supernatants and cells were collected. For some experiments, MDA cells were treated with 1 to 100 ng/mL doxorubicin (Sigma-Aldrich) in 2% CM for 24 his at 37° C., prior to co-culture with hMSCs. In other experiments, hMSCs were treated with either apoptotic MDA cells or 1 μg/mL Polyinosinic-Polycytidylic acid [Poly(I:C); Sigma-Aldrich; St. Louis, Mo.] with or without TNF-α (10 ng/ml) for 24 hrs in 2% CM.
(§2) hMSCs and MDA cells from co-culture experiments were suspended in PBS and incubated with CD90-PE (Clone Thy1/310; Beckman Coulter) for 45 minutes on ice, washed with PBS by centrifugation, incubated at RT for 20 minutes with 300 ng/mL annexin V (AnnexinV-FITC Apoptosis Detection Kit; Sigma-Aldrich) and 4 μg/mL 7-aminoactinomycin D (7AAD; Sigma-Aldrich.), and analyzed by flow cytometry (Cytomics FC500; Beckman Coulter).

[2] = tested on: TRAIL; test: TRAIL expression in hMSCs (real-time RT-PCR, Western, ELISA, IF)
Description: (§3) Approximately 200 ng of total RNA extracted from cultured cells was used to synthesize double-stranded complementary DNA (cDNA) by reverse transcription (SuperScript III; Invitrogen). cDNA was analyzed by real-time PCR using TaqMan Universal PCR Master Mix (Applied Biosystems). For the assays, reactions were incubated at 50° C. for 2 minutes and at 95° C. for 10 minutes followed by 40 cycles at 95° C. for 15 seconds and 60° C. for 1 minute. For relative quantitation of gene expression, human-specific GAPDH primers and probe (Taq-Man Gene Expression Assays ID, Hs00266705_g1) were used. The other PCR primers and probes were human DKK3 (Hs00247426_m1), human TRAIL (TNFSF10: Hs00921974_m1) and human TLR3 (Hs01551078_m1) all purchased from the same source (Applied Biosystems).
(§4) Cultured cells were sorted using FACS after CD90-PE staining. Sorted samples were lysed (Cell Extraction Buffer; Invitrogen) and sonicated for 15-20 seconds (Ultrasonic Processor, 130W; Cole-Parmer; Vernon Hills, Ill.). […] The samples were heated at 97° C. for 5 minutes. Denatured protein samples were separated by electrophoresis on polyacrylamide gels (NuPAGE® Bis-Tris Gels; Invitrogen) and proteins transferred to Invitrolon™ PVDF membrane (Pore size—0.45 μm; Invitrogen) using Novex® NuPAGE® SDS-PAGE Gel System (Invitrogen). Membranes were then blocked for 1 hour at room temperature (RT) using blocking buffer that contained 5% non-fat dry milk (Cell Signaling Technologies, Inc.) in Tris-buffered saline with 0.1% Tween-20 (TBST). After blocking, membranes were incubated overnight at 4° C. with primary antibodies that were diluted in 5% BSA in TBST. The membranes were washed with TBST three times for 5 minutes each, and incubated with secondary antibodies, which were diluted in blocking buffer, for 1 hour at RT. After secondary antibody incubation, the membranes were washed with TBST three times and developed using West-Q Chemiluminescent Substrate Kit (Gendepot, Inc.; Barker, Tex.) for 1 minute. Images were taken using Molecular Imager VersaDoc™ MP 4000 (Bio-rad Laboratories). The membranes were washed with TBST three times and stripped using Restore™ Western Blot Stripping buffer (Thermo Fisher Scientific, Inc.) for 15 minutes at 37° C., followed by three more washes with TBST. The membranes were blocked for 1 hour using blocking buffer and incubated with β-actin primary antibody conjugated with HRP (1:10,000) diluted in blocking buffer followed by imaging as described above. […]
Conditioned media from cultured MDA and hMSCs were collected after 24 hour incubation. For the DKK-3 assay, culture media were filtered (Spin-X® Centrifuge Tube Filter, 0.22 μm; Corning, Inc) and the protein level was detected by ELISA (Human Dkk-3 DuoSet; R&D Systems). […]

[3] = tested on: MDA cells; test: Co-culture of hMSCs and MDA cells (Annexin V/7AAD apoptosis, live cell counting)
Description: as §1, §2
hMSCs (5×10^4 cells/well in 6 well plate) were treated with either TLR3 antibody (5 μg/mL; eBioscience, Inc; San Diego, Calif.), TRAIL antibody (25 μg/mL; BD Biosciences, Inc; San Jose, Calif.), or normal mouse IgG (5 or 25 μg/mL; PeproTech, Inc; Rocky Hill, N.J.) for 30 minutes at 37° C. in 2% CM with or without TNF-α (10 ng/mL) prior to co-culture with an equal number of MDA cells for 24 hrs.

[4] = tested on: DKK3; test: DKK3 expression in hMSCs (ELISA); conditions: 10 ng/mL TNF-α
Description: Conditioned media from cultured MDA and hMSCs were collected after 24 hour incubation. For the DKK-3 assay, culture media were filtered (Spin-X® Centrifuge Tube Filter, 0.22 μm; Corning, Inc) and the protein level was detected by ELISA (Human Dkk-3 DuoSet; R&D Systems). For detection of TRAIL, the filtered medium was concentrated to 4 times (Vivaspin 6 (5 kDa MWCO; GE Healthcare; UK) and assayed by ELISA (Human TRAIL Quantikine ELISA kit; R&D Systems).

[5] = tested on: TLR3; test: TLR3 expression in hMSCs (real-time RT-PCR); conditions: incubation with TNF-α
Description: as §3
hMSCs and MDA cell were separated by cell sorting (FACS, MoFlo™ XDP; Beckman Coulter; Brea, Calif.) after labeling with CD90-PE for 45 minutes on ice. RNA was extracted using RNeasy Mini Kit (QIAGEN). See Supplemental Information for real time RT-PCR analysis.

[6] = tested on: cyclin D1, cyclin D3 and p21; test: Cyclin D1, cyclin D3 and p21 in MDA cells (Western blot, IF staining); conditions: TNF-α alone
Description: as §4, with “Laboratories).” for “Laboratories). The membranes were washed with TBST three times and stripped using Restore™ Western Blot Stripping buffer (Thermo Fisher Scientific, Inc.) for 15 minutes at 37° C., followed by three more washes with TBST. The membranes were blocked for 1 hour using blocking buffer and incubated with β-actin primary antibody conjugated with HRP (1:10,000) diluted in blocking buffer followed by imaging as described above.”

[7] = tested on: β-catenin; test: β-catenin in MDA cells (IF staining); conditions: 24 hr incubation with rhDKK3
Description: For immunofluorescence staining, hMSCs were cultured in CCM overnight in 150 mm diameter plates and replated at 10,000 cells/cm^2 in chambered slides (Lab Tek II Chamber Slide™ System; Nunc Thermo Scientific, Rochester, N.Y.). […] After co-culture, the cells were washed with PBS twice and fixed with either methanol for anti-TRAIL antibody or 4% PFA for all other antibodies. The slides were further processed for immuno-staining as described above. The antibodies used for immunochemistry were anti-human nuclei mouse monoclonal antibody (Millipore, Billerica, Mass.) anti-GFP-Alexa Fluor® rat monoclonal antibody (RQ2; MBL Co. Ltd, Woburn, Mass.), anti-human TRAIL rabbit polyclonal antibodies (C92B9; Cell Signaling) anti-human cyclin D1 mouse monoclonal antibody (DCS6; Cell Signaling), anti-human p21 mouse monoclonal antibody (DCS60; Cell Signaling) and anti-human β-catenin mouse monoclonal antibodies (BD Bioscience, Sparks, Md.). Alexa Fluor® antibodies (Invitrogen) were used for secondary antibodies.

[8] = tested on: U87; test: Live cell number / cell death of U87 cells; conditions: 100 ng/ml rhTRAIL, 24 hour; compared with MDA cells

COc1cccc2c1C(=O)c1c(O)c3c(c(O)c1C2=O)C[C@@](O)(C(=O)CO)C[C@@H]3O[C@H]1C[C@H](N)[C@H](O)[C@H](C)O1 [doxorubicin]
apoptosis of MDA cells ([1]; 100 ng/mL (0.2 μM)): did not induce apoptosis | proliferation of MDA (recovery of live cells) ([1]; 100 ng/mL (0.2 μM), 24 hrs): suppressed proliferation of MDA | number of live MDA cells recovered from cultures ([1]; after 24 hrs, 1 to 100 ng/mL, dose dependent): decreased the number of live MDA cells

DNase
increase of TRAIL in hMSCs by apoptotic MDA cells pre-treated with enzyme ([2]; 24 hr incubation): inhibited the increase of TRAIL in hMSCs

IFN-γ: pro-inflammatory agent
up-regulation of TRAIL in hMSCs ([2]; 24 hour incubation of hMSCs with the agent, real time RT-PCR): 30 fold

Polyinosinic-Polycytidylic acid [poly(I:C)]
expression of TRAIL in hMSCs ([2]; 1 μg/mL Poly(I:C), 24 hrs): increased expression of TRAIL in hMSCs | MDA apoptosis when agent added to co-cultures ([3]; poly(I:C)/TNF-α pre-activated hMSCs, 24 hr): small but statistically significant increase in MDA apoptosis

TNF-α
expression of TRAIL protein in hMSCs ([2]; 10 ng/mL TNF-α): up-regulated | expression of DKK3 protein in hMSCs [4]: up-regulated | expression of TLR3 in hMSCs [5]: increased by incubation with TNF-α | concentration adequate to activate hMSCs to induce MDA apoptosis ([3]; co-culture): 0.1 ng/mL | activation of hMSCs to induce apoptosis of MDA cells in co-culture ([3]; over the range of 0.1 to 10 ng/mL): concentration dependent | expression of cyclin D1, D3 and p21 in MDA cells [6]: had no significant effect

rhDKK-3: recombinant human DKK3 (R&D Systems)
number of β-catenin expressing MDA [7]: decreased the number of β-catenin expressing MDA | proliferation of MDA cells (MTT, live cell number) ([1]; 24 hr incubation with rhDKK3): decreased | viability of MDA cells (Annexin V & 7AAD) ([1]; rhDKK3 5 ng/mL, 24 hr): without affecting the viability of MDA cells

B1: rhTRAIL: recombinant human TRAIL (R&D Systems) (protein, UniProt P50591 39-281, looked up)
extracellular domain: TNELKQMQDKYSKSGIACFLKEDDSYWDPNDEESMNSPCWQVKWQLRQLVRKMILRTSEETISTVQEKQQNISPLVRERGPQRVAAHITGTRGRSNTLSSPNSKNEKALGRKINSWESSRSGHSFLSNLHLRNGELVIHEKGFYYIYSQTYFRFQEEIKENTKNDKQMVQYIYKYTSYPDPILLMKSARNSCWSKDAEYGLYSIYQGGIFELKENDRIFVSVTNEHLIDMDHEASFFGAFLVG
modifications: extracellular domain
sensitivity of U87 cells (cell death) [8]: less sensitive to rhTRAIL than MDA cells
